Results: patent US7687546B2, “Quaternary ammonium compound, process for producing the same, therapeutic agent for cerebrovascular disorder, and therapeutic agent for heart disease” (Activus Pharma Co., Ltd., priority 2004, dated 2010)
Like-named read-outs stand apart in the source and are kept apart here.

Key:
[1] = system: ouabain-induced arrhythmia model; test: Ouabain-induced arrhythmia model in guinea pigs; format: in vivo, guinea pigs (Hartley strain); settings: dose 3 mg/kg i.v. immediately before ouabain infusion 3 μg/0.1 ml/min
Source text: After guinea pigs (Hartley strain, age 6 weeks) were anesthetized with urethane, induction electrodes were attached to the hind limbs and fore limbs, and standard 2-lead electrocardiograms were monitored with an animal electrocardiogram analysis system (ECG-01, Japan Energy). After confirming that the waveforms of the electrocardiogram and heart rate were within the normal range, an incision was made in the epidermis of the neck followed by inserting a breathing tube into the trachea and cannulating a polyethylene tube into the left external jugular vein and left common carotid artery.
Immediately after administering a compound of the present invention dissolved in a physiological saline solution into the right external jugular vein, ouabain was continuously infused at 3 μg/0.1 ml/min through the cannulated polyethylene tube into the left external jugular vein using a syringe pump (Atom Syringe Pump 1235 (trade name), Atom Medical Corporation).
In addition, the polyethylene tube cannulated in the left common carotid artery was connected to a pressure transducer (P23XL, Gould Electronics), and fed to a pressure processor signal conditioner (TA-11, Gould Electronics) to record blood pressure and heart rate on a thermal plate recorder.
The results were assessed by comparing the dose (μg/kg) of ouabain administered until the appearance of arrhythmia and occurrence of cardiac arrest (arrhythmia is not induced even if a large dose of ouabain is administered if antiarrhythmic effects are high). Furthermore, a solvent dose group (administered only physiological saline in an amount equal to that of the test drug groups), and a positive control group administered a typical antiarrhythmic disopyramide phosphate (physiological saline solution), were also provided.

guinea pigs [2] = test: Study of arrhythmia-inducing action in guinea pigs (without ouabain); settings: no ouabain
[3] = system: model of myocardial ischemia reperfusion injury; test: Model of myocardial ischemia-reperfusion injury in dogs; format: in vivo; settings: 3 mg/kg into the femoral vein 10 minutes before 20 minutes coronary occlusion, then reperfusion
Method: In order to confirm the efficacy of compounds of the present invention on myocardial infarction and arrhythmia caused by myocardial infarction, a pharmacological study was conducted using a model of myocardial ischemia reperfusion injury in dogs for the compounds used in Example 1.
Dogs having body weights of approximately 10 kg were anesthetized with pentobarbital (trade name) (30 mg/ml/kg) followed by shaving the surgical site after starting artificial respiration. The femoral vein and femoral artery were separated followed by cannulation. The femoral vein was used as the administration route for the test substances, while the femoral artery was used to measure blood pressure.
Next, after opening the left chest, making an incision in the pericardium and exposing the left ventricle, the left coronary artery was separated. A silk suture was passed through the coronary artery to occlude, followed by the attachment of an electromagnetic flow meter probe for measuring blood flow.
In addition, a pair of ultrasound crystal probes was fixed in position to measure changes in ventricular wall length as a indicator of myocardial contractile force, and indwelling needle was installed for measuring left intraventricular pressure. Compounds of the present invention were administered into the femoral vein at 3 mg/kg (15% physiological saline solution) followed 10 minutes later by occluding the coronary artery for 20 minutes, and subsequently reperfusing the coronary artery. Myocardial contraction following ischemia-reperfusion was compared for each group based on a value of 100 for myocardial contraction prior to ischemic reperfusion. In addition, comparisons were also made with a solvent control group administered only physiological saline.

[4] = system: model of myocardial ischemia-reperfusion injury; test: Model of myocardial ischemia-reperfusion injury in rats; format: in vivo; settings: 3 mg/kg i.v. 5 minutes before 5 minutes coronary ligation, 8 rats per group; for Incidence of Ventricular Fibrillation (%) / Incidence of Ventricular Tachycardia (%): monitored 5 minutes after reperfusion; for Mortality Rate (%): then reperfusion
[5] = system: middle cerebral artery occlusion and reperfusion model; test: Cerebral infarction model: middle cerebral artery occlusion and reperfusion (infarct area, neurological symptoms, motor function); format: in vivo, rats (Crj: Wistar strain); design: Improvement of neurological symptoms* (total score): scale not given here; settings: rats, average of 10 animals; for Improvement of neurological symptoms* (total score) / Improvement of motor function (time stayed on rotor rod: seconds): single i.v. dose 3 mg/kg; for Improvement of neurological symptoms* (total score): 24 hours after occlusion, total score per Table 4, smaller = greater effect; for Improvement of motor function (time stayed on rotor rod: seconds): rotor rod 14 rotations per minute, maximum 1 minute; for Cerebral infarction reduction rate (%): single intravenous dose 3 mg/kg immediately before reperfusion, vs physiological saline group, bigger = greater effect
Method: In this example, a cerebral infarction model was prepared using rats in which reperfusion injury was induced by ischemia and then reperfusion of the middle cerebral artery using the obturator method. The efficacy of compounds of the present invention following single-dose intravenous administration at dose of 3 mg/kg was evaluated in terms of infarct area, neurological symptoms and motor function.
In addition, Edaravone (trade name, Mitsubishi Pharma Corporation) was used as a reference compound. The compounds of the present invention were stored in a refrigerator under protection from light, while Edaravone (trade name) was stored at room temperature under protection from light.
Compounds of present invention: 2 mL of physiological saline was added directly to tube containing 3 mg aliquots of a compound of the present invention to dissolve and prepare solutions having a concentration of 3 mg/2 mL. These samples were prepared at the time of use.
Edaravone: Since Edaravone is an injectable solution having a concentration of 30 mg/20 mL, the required amounts were divided up and used.
Rats: Crj: Wistar strain, males, age 7 weeks (Charles River Laboratories Japan, Inc.)
The test compounds were administered in a single dose into the tail vein using a 1 mL syringe and 27 G injection needle immediately before the reperfusion.
The rats were anesthetized by intraperitoneal administration of sodium pentobarbital at dose of 40 mg/kg (Nembutal (trade name), Dainippon Pharmaceutical Co., Ltd.), and a middle cerebral artery occlusion and reperfusion model was prepared in accordance with the method of Koizumi et al. (Non-Patent Document 2). Namely, the animals were warmed to 37° C. and held in the dorsal position while breathing spontaneously. A midline cervical incision was made, and then the right external carotid artery and right internal carotid artery were separated without damaging the vagus nerve. The right common carotid artery and right external carotid artery were ligated, and a suture was attached to the origin of the internal carotid artery in preparation for ligation and maintenance of occlusion following insertion of an obturator into the internal carotid artery. Moreover, a small incision was made in the right common carotid artery, an obturator provided with an approximately 17 mm silicon-coated suture was inserted into the internal carotid artery, and the internal carotid artery was ligated. Two hours after ligation, the obturator was removed under unanesthesia to reperfuse. Furthermore, flexion of the contralateral forelimb was confirmed 30 minutes after occlusion of the middle cerebral artery.
The following neurological symptoms were evaluated 24 hours after occlusion of the middle cerebral artery according to the evaluation method of Petullo et al. (Non-Patent Document 3). Neurological symptoms consisted of flexion of the forelimbs, torso twisting, resistance when pushing on the back of the right or left shoulder (Lateral push), circling, return of the hindlimb to the floor when lifted from the floor (Hindlimb placement), behavior when the head is faced downward on an angle (Inverted angle board) and a locomotor activity test.
Flexion of the forelimbs: flexion of the forelimbs was observed when the animals were lifted up by the tail.
Torso twisting: Torso twisting was observed when the animals were lifted up by the tail.
Lateral push: Resistance was observed when pushing on the back of the right or left shoulder.
Hindlimb placement: The animals were observed as to whether or not the hindlimb immediately returns to the floor after being lifted from the floor when placed on a horizontal floor.
locomotor activity: locomotor activity was observed when the animals were placed in a polycarbonate cage.
The aforementioned tests were scored based on the criteria described in the following documents, followed by calculation of total scores (see Table 4 “Neurological Symptom Evaluation Criteria and Scores”). […]

guinea pigs [6] = settings: guinea pig, in vivo
[7] = dose 3 mg/kg, up to 1 hour after administration
[8] = dose 10 mg/kg, up to 1 hour after administration
[9] = dose 3.9 mg/kg, up to 1 hour after administration

| SMILES | Ouabain (μg/kg) administered until Cardiac arrest [1] | Ouabain (μg/kg) administered until appearance of Arrhythmia [1] | Occurrence of Arrhythmia (guinea pigs [2]; [7]) | Occurrence of cardiac arrest (guinea pigs [2]; [7]) | Occurrence of Arrhythmia (guinea pigs [2]; [8]) | Occurrence of cardiac arrest (guinea pigs [2]; [8]) | Myocardial Contraction (%) (Based on a value of 100% for prior to ischemia-reperfusion) [3] | Incidence of Ventricular Fibrillation (%) [4] | Incidence of Ventricular Tachycardia (%) [4] | Mortality Rate (%) [4] | Improvement of neurological symptoms* (total score) [5] | Improvement of motor function (time stayed on rotor rod: seconds) [5] | Cerebral infarction reduction rate (%) [5] | further results |
| --- | --- | --- | --- | --- | --- | --- | --- | --- | --- | --- | --- | --- | --- | --- |
| C[N+](C)(C)CCOc1ccc(C(=O)[O-])cc1 [Compound 3, 4-(2-trimethylammonio-ethoxy)-benzoate] | 235 µg/kg | 169 µg/kg | No | No | No | No | 81% | 12.5% | 62.5% | 0% | 6.20 | 50.1 s | 48.7% | – |
| C[N+](C)(C)CCOc1cc(C(=O)O)ccc1O.[Cl-] [Compound 27, [2-(5-carboxy-2-hydroxy-phenoxy)-ethyl]-trimethylammonium Chloride] | 258 µg/kg | 180 µg/kg | No | No | No | No | 85% | 0% | 50.0% | 0% | 6.75 | 47.5 s | 53.7% | – |
| C[N+](C)(C)CCCOc1cc(S(=O)(=O)[O-])ccc1O [Compound 77] | 227 µg/kg | 167 µg/kg | – | – | – | – | 75% | 12.5% | 75.0% | 12.5% | 6.40 | 49.3 s | 47.3% | Occurrence of Arrhythmia (guinea pigs [6]; 3 mg/kg): No; Occurrence of cardiac arrest (guinea pigs [6]; 3 mg/kg): No; Occurrence of Arrhythmia (guinea pigs [6]; 10 mg/kg): No; Occurrence of cardiac arrest (guinea pigs [6]; 10 mg/kg): No |
| CC(C)N(CCC(C(N)=O)(c1ccccc1)c1ccccn1)C(C)C (stereo not drawn) [Disopyramide phosphate, disopyramide phosphate, reference compound] | 247 µg/kg | 175 µg/kg | – | – | – | – | – | – | – | – | – | – | – | Occurrence of Arrhythmia (guinea pigs [2]; [9]): No; Occurrence of cardiac arrest (guinea pigs [2]; [9]): No; Occurrence of cardiac arrest (guinea pigs [2]; dose 12.9 mg/kg (10 mg/kg as disopyramide)): Yes; Occurrence of cardiac arrest (guinea pigs [2]; dose 12.9 mg/kg (10 mg/kg as disopyramide), listed as disopyramide phosphate): cardiac arrest occurred immediately after administration |
